IC50 data for 25 compounds are collected here from patent US10660877B2 (BRISTOL-MYERS SQUIBB COMPANY, priority 2016, dated 2020).

The term pIC50 denotes the negative decadic logarithm of the IC50, by convention in mol/L.

Molecules are shown by their SMILES. pIC50: −log10 of the molar value. Like-named read-outs stand apart in the source and are kept apart here.

One assay has as its target human TLR7 (Homo sapiens (Human), UniProt Q9NYK1). Briefly: TLR7 inhibition reporter assay (HEK-Blue cells, SEAP reporter, gardiquimod stimulation). In kind it is cell-based. The settings on record: HEK-Blue cells overexpressing human TLR7, gardiquimod 7.5 μM.
A further assay deals with human TLR9 (Homo sapiens (Human), UniProt Q9NR96). Briefly: TLR9 inhibition reporter assay (HEK-Blue cells, SEAP reporter, ODN2006 stimulation).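 Further: compounds tested over 0.05 nM to 50 µM, 22 h incubation, inhibition taken as SEAP signal drop from agonist plus DMSO wells toward a known inhibitor control.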 In general terms: In a reporter assay the amount or activity of a reporter protein is the signal.
The next assay has as its target human TLR8 (Homo sapiens (Human), UniProt Q9NR97). Briefly: TLR8 inhibition reporter assay (HEK-Blue cells, SEAP reporter, R848 stimulation).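 Further: compounds tested from 0.05 nM to 50 µM, 22 h at 37 °C, SEAP measured with HEK-Blue Detection, inhibition relative to agonist plus DMSO versus a known inhibitor.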
[1] abbreviates: read-out: TLR9 IC50, HEK-Blue cells overexpressing human TLR9, ODN2006 5 nM.
The mark [2] stands for this setting: read-out: TLR8 IC50, HEK-Blue cells overexpressing human TLR8, R848 15.9 μM.
The mark [3] stands for this setting: TLR9 IC50, HEK-Blue cells overexpressing human TLR9, ODN2006 5 nM.
Where [4] appears, read: TLR8 IC50, HEK-Blue cells overexpressing human TLR8, R848 15.9 μM.

human TLR9, sequence (Q9NR96 26-1032): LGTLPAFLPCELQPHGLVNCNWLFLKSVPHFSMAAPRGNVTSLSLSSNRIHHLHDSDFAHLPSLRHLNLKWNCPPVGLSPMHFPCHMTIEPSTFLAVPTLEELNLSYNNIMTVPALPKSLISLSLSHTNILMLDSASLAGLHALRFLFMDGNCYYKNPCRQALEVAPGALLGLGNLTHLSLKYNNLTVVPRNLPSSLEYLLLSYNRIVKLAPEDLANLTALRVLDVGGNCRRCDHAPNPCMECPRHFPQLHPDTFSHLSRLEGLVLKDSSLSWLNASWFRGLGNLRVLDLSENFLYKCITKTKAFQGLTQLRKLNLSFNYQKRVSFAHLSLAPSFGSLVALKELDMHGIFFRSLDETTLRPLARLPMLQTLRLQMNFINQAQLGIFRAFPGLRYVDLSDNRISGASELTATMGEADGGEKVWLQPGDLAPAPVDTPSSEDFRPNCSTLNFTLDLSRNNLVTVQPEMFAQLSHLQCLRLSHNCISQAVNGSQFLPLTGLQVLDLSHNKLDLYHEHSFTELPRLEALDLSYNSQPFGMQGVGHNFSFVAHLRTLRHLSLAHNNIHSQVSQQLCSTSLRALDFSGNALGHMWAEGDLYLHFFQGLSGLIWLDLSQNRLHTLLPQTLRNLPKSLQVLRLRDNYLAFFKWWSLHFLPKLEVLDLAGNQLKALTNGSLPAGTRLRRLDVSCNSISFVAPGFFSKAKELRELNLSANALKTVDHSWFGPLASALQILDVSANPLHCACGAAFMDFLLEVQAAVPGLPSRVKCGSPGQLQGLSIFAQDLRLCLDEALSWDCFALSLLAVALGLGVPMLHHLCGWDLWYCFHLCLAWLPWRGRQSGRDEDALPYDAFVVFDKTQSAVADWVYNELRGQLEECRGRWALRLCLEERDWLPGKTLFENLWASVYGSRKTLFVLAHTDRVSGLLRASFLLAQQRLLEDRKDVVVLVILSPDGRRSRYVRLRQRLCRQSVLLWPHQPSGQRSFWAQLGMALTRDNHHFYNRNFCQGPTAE
human TLR8, sequence (Q9NR97 27-1041): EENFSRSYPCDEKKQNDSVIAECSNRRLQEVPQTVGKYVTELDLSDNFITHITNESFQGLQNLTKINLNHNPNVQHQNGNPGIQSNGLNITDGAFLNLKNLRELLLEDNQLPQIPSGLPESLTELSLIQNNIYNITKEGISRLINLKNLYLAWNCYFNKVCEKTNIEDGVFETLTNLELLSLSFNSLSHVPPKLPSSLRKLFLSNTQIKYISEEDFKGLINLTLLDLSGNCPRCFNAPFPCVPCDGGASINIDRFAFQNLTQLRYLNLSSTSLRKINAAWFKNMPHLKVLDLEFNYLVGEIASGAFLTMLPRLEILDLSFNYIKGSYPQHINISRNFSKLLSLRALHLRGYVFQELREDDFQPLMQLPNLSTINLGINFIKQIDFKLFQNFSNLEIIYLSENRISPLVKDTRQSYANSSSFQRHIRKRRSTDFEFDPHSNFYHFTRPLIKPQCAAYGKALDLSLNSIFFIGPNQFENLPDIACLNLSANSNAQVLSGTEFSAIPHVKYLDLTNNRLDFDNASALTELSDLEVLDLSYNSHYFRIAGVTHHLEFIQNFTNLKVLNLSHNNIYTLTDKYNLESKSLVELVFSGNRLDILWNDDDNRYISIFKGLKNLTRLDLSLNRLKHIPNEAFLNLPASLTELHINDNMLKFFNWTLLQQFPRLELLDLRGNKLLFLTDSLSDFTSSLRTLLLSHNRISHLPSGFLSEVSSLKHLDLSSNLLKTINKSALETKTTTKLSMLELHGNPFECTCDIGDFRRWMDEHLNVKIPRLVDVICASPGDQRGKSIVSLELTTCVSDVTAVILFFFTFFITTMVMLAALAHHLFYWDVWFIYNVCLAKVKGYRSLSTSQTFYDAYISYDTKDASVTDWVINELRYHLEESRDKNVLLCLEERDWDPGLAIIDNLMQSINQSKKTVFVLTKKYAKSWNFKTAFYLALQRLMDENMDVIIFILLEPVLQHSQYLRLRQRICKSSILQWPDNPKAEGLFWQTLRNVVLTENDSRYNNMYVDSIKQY
human TLR7, sequence (Q9NYK1 27-1049): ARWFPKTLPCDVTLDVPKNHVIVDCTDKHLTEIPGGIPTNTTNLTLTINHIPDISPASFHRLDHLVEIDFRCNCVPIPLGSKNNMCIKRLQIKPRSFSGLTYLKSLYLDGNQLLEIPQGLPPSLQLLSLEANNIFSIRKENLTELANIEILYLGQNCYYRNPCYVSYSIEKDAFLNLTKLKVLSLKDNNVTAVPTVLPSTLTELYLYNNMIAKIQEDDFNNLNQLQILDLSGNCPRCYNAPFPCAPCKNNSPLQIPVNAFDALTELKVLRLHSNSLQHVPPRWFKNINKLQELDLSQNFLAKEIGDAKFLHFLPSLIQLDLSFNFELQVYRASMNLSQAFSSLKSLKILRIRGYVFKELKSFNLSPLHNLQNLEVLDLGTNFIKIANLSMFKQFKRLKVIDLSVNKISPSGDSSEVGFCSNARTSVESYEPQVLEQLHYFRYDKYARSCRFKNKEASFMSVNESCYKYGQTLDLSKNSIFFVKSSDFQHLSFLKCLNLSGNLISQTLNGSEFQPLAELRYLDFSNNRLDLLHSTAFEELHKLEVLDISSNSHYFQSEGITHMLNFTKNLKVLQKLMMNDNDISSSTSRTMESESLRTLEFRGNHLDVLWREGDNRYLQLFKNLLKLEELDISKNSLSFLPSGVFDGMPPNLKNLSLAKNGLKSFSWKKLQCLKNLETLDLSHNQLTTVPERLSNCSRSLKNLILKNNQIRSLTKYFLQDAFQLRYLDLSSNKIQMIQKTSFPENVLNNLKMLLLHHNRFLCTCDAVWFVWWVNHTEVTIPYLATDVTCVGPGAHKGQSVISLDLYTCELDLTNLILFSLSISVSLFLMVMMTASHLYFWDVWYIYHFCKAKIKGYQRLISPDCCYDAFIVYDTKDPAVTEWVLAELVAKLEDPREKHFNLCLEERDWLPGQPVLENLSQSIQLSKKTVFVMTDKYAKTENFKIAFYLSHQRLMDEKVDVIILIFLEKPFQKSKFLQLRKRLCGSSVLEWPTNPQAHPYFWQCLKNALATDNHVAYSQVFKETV
Method for human TLR7: TLR7/8/9 Inhibition Reporter Assays
(§1) Briefly, cells are seeded into Greiner 384 well plates (15000 cells per well for TLR7, 20,000 for TLR8 and 25,000 for TLR9) and then treated with test compounds in DMSO to yield a final dose response concentration range of 0.05 nM-50 μM. […] After a 22 hour incubation at 37° C., 5% CO2, SEAP levels are determined with the addition of HEK-Blue™ Detection reagent (Invivogen), a cell culture medium that allows for detection of SEAP, according to manufacturer's specifications. The percent inhibition is determined as the % reduction in the HEK-Blue signal present in wells treated with agonist plus DMSO alone compared to wells treated with a known inhibitor.
Method for human TLR8: TLR7/8/9 Inhibition Reporter Assays
as §1

For `Cc1cc(-c2[nH]c3ccc(C4CCN(Cc5ccccn5)CC4)cc3c2C(C)C)cc(C)n1` [Example 431, 2-(2,6-dimethylpyridin-4-yl)-3-isopropyl-5-(1-(pyridin-2-ylmethyl)piperidin-4-yl)-1H-indole], the pIC50 against human TLR7 was 8.08; on human TLR9 (setting [1]) it was 6.34; on human TLR8 (setting [2]) it was 8.17.
Taken in the same sequence, the figures for `Cc1cc(-c2[nH]c3ccc(C4CCN(Cc5ccon5)CC4)cc3c2C(C)C)cc(C)n1` [Example 432, 3-((4-(2-(2,6-dimethylpyridin-4-yl)-3-isopropyl-1H-indol-5-yl)piperidin-1-yl)methyl)isoxazole] were 8.25, 6.19 and 8.06.
In the case of `Cc1cc(-c2[nH]c3ccc(C4CCN(Cc5cccnc5)CC4)cc3c2C(C)C)cc(C)n1` [Example 433, 2-(2,6-dimethylpyridin-4-yl)-3-isopropyl-5-(1-(pyridin-3-ylmethyl)piperidin-4-yl)-1H-indole], the pIC50 was 8.34 against human TLR7, 6.63 against human TLR9 (setting [3]) and 8.62 on human TLR8 (setting [4]).
The corresponding values for `Cc1cc(-c2[nH]c3ccc(C4CCN(Cc5cncnc5)CC4)cc3c2C(C)C)cc(C)n1` [Example 434, 2-(2,6-dimethylpyridin-4-yl)-3-isopropyl-5-(1-(pyrimidin-5-ylmethyl)piperidin-4-yl)-1H-indole] are 7.45, 6.12 and 7.98.
Consider `Cc1cc(-c2[nH]c3ccc(C4CCN(Cc5ccncc5)CC4)cc3c2C(C)C)cc(C)n1` [Example 435, 2-(2,6-dimethylpyridin-4-yl)-3-isopropyl-5-(1-(pyridin-4-ylmethyl)piperidin-4-yl)-1H-indole], for which the pIC50 is 8.04 on human TLR7, 6.22 at human TLR9 (setting [1]) and 8.38 on human TLR8 (setting [2]).
Regarding `CCC(CC)N1CCC(c2ccc3[nH]c(-c4cc(C)nc(C)c4)c(C(C)C)c3c2)CC1` [Example 436, 2-(2,6-dimethylpyridin-4-yl)-3-isopropyl-5-(1-(pentan-3-yl)piperidin-4-yl)-1H-indole], the pIC50 against human TLR7 was 8.35; at human TLR9 (setting [1]) it was 7.03; on human TLR8 (setting [2]), 8.33.
Consider `Cc1ccc(CN2CCC(c3ccc4[nH]c(-c5cc(C)nc(C)c5)c(C(C)C)c4c3)CC2)cn1` [Example 437, 2-(2,6-dimethylpyridin-4-yl)-3-isopropyl-5-(1-((6-methylpyridin-3-yl)methyl)piperidin-4-yl)-1H-indole], for which the negative logarithm of the IC50 (pIC50) is 8.07 at human TLR7, 6.57 on human TLR9 (setting [1]) and 8.17 on human TLR8 (setting [2]).
For the compound `Cc1cc(-c2[nH]c3ccc(C4CCN(Cc5cn[nH]c5)CC4)cc3c2C(C)C)cc(C)n1` [Example 438, 5-(1-((1H-pyrazol-4-yl)methyl)piperidin-4-yl)-2-(2,6-dimethylpyridin-4-yl)-3-isopropyl-1H-indole], the pIC50 at human TLR7 was 8.92; on human TLR9 (setting [1]), 7.16; at human TLR8 (setting [2]), 8.51.
Regarding `Cc1cc(-c2[nH]c3ccc(C4CCN(Cc5c[nH]nc5C)CC4)cc3c2C(C)C)cc(C)n1` [Example 439, 2-(2,6-dimethylpyridin-4-yl)-3-isopropyl-5-(1-((3-methyl-1H-pyrazol-4-yl)methyl)piperidin-4-yl)-1H-indole], the pIC50 against human TLR7 is 8.11; at human TLR9 (setting [1]), 6.69; at human TLR8 (setting [2]) it was 8.20.
Consider `Cc1cc(-c2[nH]c3ccc(C4CCN(Cc5cnn(C)c5)CC4)cc3c2C(C)C)cc(C)n1` [Example 440, 2-(2,6-dimethylpyridin-4-yl)-3-isopropyl-5-(1-((1-methyl-1H-pyrazol-4-yl)methyl)piperidin-4-yl)-1H-indole], for which the figures for the pIC50 against human TLR7, at human TLR9 (setting [1]) and on human TLR8 (setting [2]) were 8.28, 6.68 and 8.64, respectively.
The corresponding values for `Cc1cc(-c2[nH]c3ccc(C4CCN(Cc5ccn[nH]5)CC4)cc3c2C(C)C)cc(C)n1` [Example 441, 5-(1-((1H-pyrazol-5-yl)methyl)piperidin-4-yl)-2-(2,6-dimethylpyridin-4-yl)-3-isopropyl-1H-indole] are 8.80, 6.52 and 8.77.
Taken in the same sequence, the figures for `Cc1cc(-c2[nH]c3ccc(C4CCN(Cc5cn(C)nn5)CC4)cc3c2C(C)C)cc(C)n1` [Example 442, 2-(2,6-dimethylpyridin-4-yl)-3-isopropyl-5-(1-((1-methyl-1H-1,2,3-triazol-4-yl)methyl)piperidin-4-yl)-1H-indole] were 8.28, 5.92 and 8.17.
The corresponding values for `Cc1cc(-c2[nH]c3ccc(C4CCN(Cc5cc(C)on5)CC4)cc3c2C(C)C)cc(C)n1` [Example 443, 3-((4-(2-(2,6-dimethylpyridin-4-yl)-3-isopropyl-1H-indol-5-yl)piperidin-1-yl)methyl)-5-methylisoxazole] are 7.64, 5.77 and 7.96.
Take `Cc1cc(-c2[nH]c3ccc(C4CCN(Cc5cncs5)CC4)cc3c2C(C)C)cc(C)n1` [Example 444, 5-((4-(2-(2,6-dimethylpyridin-4-yl)-3-isopropyl-1H-indol-5-yl)piperidin-1-yl)methyl)thiazole]: the pIC50 was 8.48 against human TLR7, 6.21 at human TLR9 (setting [1]) and 8.80 at human TLR8 (setting [2]).
The corresponding values for `Cc1cc(-c2[nH]c3ccc(C4CCN(Cc5ccn(C)n5)CC4)cc3c2C(C)C)cc(C)n1` [Example 445, 2-(2,6-dimethylpyridin-4-yl)-3-isopropyl-5-(1-((1-methyl-1H-pyrazol-3-yl)methyl)piperidin-4-yl)-1H-indole] are 8.44, 6.50 and 9.15.
The corresponding values for `Cc1cc(-c2[nH]c3ccc(C4CCN(Cc5c[nH]nn5)CC4)cc3c2C(C)C)cc(C)n1` [Example 446, 5-(1-((1H-1,2,3-triazol-4-yl)methyl)piperidin-4-yl)-2-(2,6-dimethylpyridin-4-yl)-3-isopropyl-1H-indole] are 8.89, 6.53 and 8.59.
The corresponding values for `COc1cc(OC)nc(CN2CCC(c3ccc4[nH]c(-c5cc(C)nc(C)c5)c(C(C)C)c4c3)CC2)n1` [Example 447, 5-(1-((4,6-dimethoxypyrimidin-2-yl)methyl)piperidin-4-yl)-2-(2,6-dimethylpyridin-4-yl)-3-isopropyl-1H-indole] are 8.27, 6.35 and 8.15.
As for `Cc1cc(-c2[nH]c3ccc(C4CCN(Cc5nnc(C6CC6)o5)CC4)cc3c2C(C)C)cc(C)n1` [Example 448, 2-cyclopropyl-5-((4-(2-(2,6-dimethylpyridin-4-yl)-3-isopropyl-1H-indol-5-yl)piperidin-1-yl)methyl)-1,3,4-oxadiazole], the results for the pIC50 against human TLR7, on human TLR9 (setting [1]) and on human TLR8 (setting [2]) were 7.29, 4.32 and 7.25, respectively.
With `Cc1cc(-c2[nH]c3ccc(C4CCN(Cc5ncco5)CC4)cc3c2C(C)C)cc(C)n1` [Example 449, 2-((4-(2-(2,6-dimethylpyridin-4-yl)-3-isopropyl-1H-indol-5-yl)piperidin-1-yl)methyl)oxazole], the pIC50 against human TLR7 was 7.87; on human TLR9 (setting [1]), 5.53; at human TLR8 (setting [2]), 7.84.
In the case of `Cc1cc(-c2[nH]c3ccc(C4CCN(C5CCOCC5)CC4)cc3c2C(C)C)cc(C)n1` [Example 450, 2-(2,6-dimethylpyridin-4-yl)-3-isopropyl-5-(1-(tetrahydro-2H-pyran-4-yl)piperidin-4-yl)-1H-indole], the pIC50 against human TLR7 is 8.11; at human TLR9 (setting [1]) it was 6.24; at human TLR8 (setting [2]), 8.10.
As for `Cc1cc(-c2[nH]c3ccc(C4CCN(Cc5ncn(C)n5)CC4)cc3c2C(C)C)cc(C)n1` [Example 451, 2-(2,6-dimethylpyridin-4-yl)-3-isopropyl-5-(1-((1-methyl-1H-1,2,4-triazol-3-yl)methyl)piperidin-4-yl)-1H-indole], the pIC50 at human TLR7 is 8.23; at human TLR9 (setting [1]) it was 5.81; on human TLR8 (setting [2]) it was 7.91.
Take `Cc1cc(-c2[nH]c3ccc(C4CCN(C5COC5)CC4)cc3c2C(C)C)cc(C)n1` [Example 452, 2-(2,6-dimethylpyridin-4-yl)-3-isopropyl-5-(1-(oxetan-3-yl)piperidin-4-yl)-1H-indole]: the results for the pIC50 against human TLR7, on human TLR9 (setting [1]) and on human TLR8 (setting [2]) were 8.31, 5.86 and 7.78, respectively.
The corresponding values for `Cc1cc(-c2[nH]c3ccc(C4CCN(C5CCOC(C)(C)C5)CC4)cc3c2C(C)C)cc(C)n1` (stereo not drawn) [Example 453, 2-(2,6-dimethylpyridin-4-yl)-5-(1-(2,2-dimethyltetrahydro-2H-pyran-4-yl)piperidin-4-yl)-3-isopropyl-1H-indole] are 8.07, 6.59 and 8.19.
Regarding `Cc1cc(-c2[nH]c3ccc(C4CCN(C5CC(C)OC(C)C5)CC4)cc3c2C(C)C)cc(C)n1` (stereo not drawn) [Example 454, 2-(2,6-dimethylpyridin-4-yl)-5-(1-(2,6-dimethyltetrahydro-2H-pyran-4-yl)piperidin-4-yl)-3-isopropyl-1H-indole], the figures for the pIC50 on human TLR7, on human TLR9 (setting [1]) and on human TLR8 (setting [2]) were 7.96, 6.45 and 7.99, respectively.
With `Cc1cc(-c2[nH]c3ccc(C4CCN(C5CC(C)OC(C)C5)CC4)cc3c2C(C)C)cc(C)n1` (stereo not drawn) [Example 455, 2-(2,6-dimethylpyridin-4-yl)-5-(1-(2,6-dimethyltetrahydro-2H-pyran-4-yl)piperidin-4-yl)-3-isopropyl-1H-indole], the pIC50 at human TLR7 was 7.96; on human TLR9 (setting [1]), 6.41; on human TLR8 (setting [2]) it was 8.12.
